In patent US11427586B2, “1,2,4-oxadiazole derivatives as liver X receptor agonists” (NOVARTIS AG, priority 2019, dated 2022) one finds Emax and EC50 data, which are given here for 6 compounds.

Where two headings read alike, the source gives them in different places.

The subject of the assay is SZ95 sebocytes. Description: Sentinel Lipid Assay (SLA), desaturation index in SZ95 sebocytes. It is filed as cell-based. Particulars: Homo sapiens, 72 h; for EC50: read-out: SLA EC50. The method, then: Sentinel Lipid Assay (SLA)
The sentinel lipid assay was used quantify the change in the global desaturation index in SZ95 sebocytes upon administration of certain LXR agonist compounds provided herein. The assay measures a smaller subset of lipid analytes in meibum (termed “sentinel lipids”) which would model the global changes the population of both saturated and desaturated lipids in the cells. In order to define this smaller subset of lipids, a complete lipid profile was recorded on dose response curves (eight levels from 4 nM to 10 uM) of Compounds 1-72. An elastic net regression model was applied separately to both the saturated and desaturated lipids to determine the minimum combination of coefficients and analytes, which could be used to adequately model the total population of lipids. The elastic net model was able to reduce the behavior of 425 lipids to 11 lipids and the correlation between the desaturation indices observed using the complete set of lipids with from the 11 sentinel lipids was 0.96.
A medium throughput assay was created using this reduced set of sentinel lipids. A single batch is defined as triplicate examples of three unique plates (i.e., a single batch of cells is used to create nine plates for LC-MSMS analysis). Lipids were extracted from the cells using a 1:1 mixture of methylene chloride/methanol containing 10 nM of deuterated standards of triglycerides, which are used as internal standards for quantitating the lipid abundance. The lipids were separated prior to mass spectrometric analysis using a five minute HPLC gradient. The abundance of the sentinel lipids and the internal standards are measured using multiple reaction monitor mode (MRM) on a triple quadrupole mass spectrometer. The data was transformed from total ion current to nmoles/10^6 cells, which are multiplied by the coefficients from the elastic net model to determine the effective desaturated and saturated content, and therein the desaturation index of the dosed cells. In order to compare compounds from multiple batches with one another, the measure raw desaturation index was normalized by dividing it by the desaturation index of the DMSO dosed cells, and all data was assessed as the fraction by which the compound increases the desaturation index above 1.
SZ95 (immortalized human sebaceous gland cells) cells were seeded in Greiner bio-one 96-well polypropylene plates that were pre-treated with 50 μg/mL Human Plasma Fibronectin (Thermo Fisher Scientific) at a density of 10^4 cells/135 μl. Cells were incubated in a humidified incubator with 5% CO2 at 37° C. overnight. Test compounds were diluted at a ratio of 1:3 and added to cells at final concentrations starting from 10 μM. 2-(3-(3-((2-chloro-3-(trifluoromethyl)benzyl)(2,2-diphenylethyl)amino)propoxy)phenyl)acetic acid was used as a positive control reference compound in each plate. Cells in the assay plate were incubated in a humidified incubator with 5% CO2 at 37° C. for 72 h.
Culture medium was removed from the cells and cells in culture plates were washed with ice cold phosphate buffered saline three times. Plates were heat sealed and stored in a −80° C. freezer prior to Sentinel lipid assay. The Amax value refers to the percent EC50 of the tested compound compared to a reference compound, 2-(3-(3-((2-chloro-3-(trifluoromethyl)benzyl)(2,2-diphenylethyl)amino)propoxy)phenyl)acetic acid.

Where [1] appears, read: normalized Amax based on the reference compound Amax of 100%, read-out: SLA Normalized Amax.
Setting [2] is: SZ95 cells, desaturation index, lowest dose used 4.6 nM.
Where [3] appears, read: SZ95 cells, compared to reference compound, read-out: SLA Amax.

`CC1(C)C(=O)N(Cc2nc(-c3ccc(Oc4ccccc4S(=O)(=O)C4CCOC4)c(C(F)(F)F)c3)no2)C(=O)N1CCC1CCOCC1` (stereo not drawn) [Compound 59, 5,5-dimethyl-1-(2-(tetrahydro-2H-pyran-4-yl)ethyl)-3-((3-(4-(2-((tetrahydrofuran-3-yl)sulfonyl)phenoxy)-3-(trifluoromethyl)phenyl)-1,2,4-oxadiazol-5-yl)methyl)imidazolidine-2,4-dione]: the Emax is, setting by setting: under setting [1], 140%; under setting [3], 135%. For the same compound, the EC50 under setting [2] was no more than 4.6 nM.

Consider `CC(C)CS(=O)(=O)c1ccccc1Oc1ccc(-c2noc(CN3C(=O)N(CCN4CCOCC4)C(C)(CN(C)C)C3=O)n2)cc1C(F)(F)F` (stereo not drawn) [Compound 60, 5-((dimethylamino)methyl)-3-((3-(4-(2-(isobutylsulfonyl)phenoxy)-3-(trifluoromethyl)phenyl)-1,2,4-oxadiazol-5-yl)methyl)-5-methyl-1-(2-morpholinoethyl)imidazolidine-2,4-dione], for which the EC50 is no more than 4.6 nM. The Emax (read-out: SLA Amax) was found to be 170%. Moreover, the Emax (read-out: SLA Normalized Amax) was 177%.

Consider `CC1(C)NC(=O)N(Cc2nc(-c3ccc(Oc4ccccc4SC(F)(F)F)c(C(F)(F)F)c3)no2)C1=O` [Compound 70, 5,5-dimethyl-3-((3-(3-(trifluoromethyl)-4-(2-((trifluoromethyl)thio)phenoxy)phenyl)-1,2,4-oxadiazol-5-yl)methyl)imidazolidine-2,4-dione], for which the Emax runs as follows: under setting [1], 67.4%; under setting [3], 64.7%. The half-maximal effective concentration (EC50) under setting [2] was determined as 99.2 nM.

On to `CN1C(=O)N(Cc2nc(-c3ccc(Oc4ccccc4C(F)(F)F)c(C(F)(F)F)c3)no2)C(=O)C1(C)C` [Compound 72, 1,5,5-trimethyl-3-((3-(3-(trifluoromethyl)-4-(2-(trifluoromethyl)phenoxy)phenyl)-1,2,4-oxadiazol-5-yl)methyl)imidazolidine-2,4-dione], for which the Emax is, setting by setting: under setting [1], 82.8%; under setting [3], 79.5%. For the same compound, the half-maximal effective concentration (EC50) under setting [2] was 29.8 nM.

Regarding `CC1(C)C(=O)N(Cc2nc(-c3ccc(Oc4ccccc4S(=O)(=O)CCN(CCO)CCO)c(C(F)(F)F)c3)no2)C(=O)N1CCN1CCOCC1` [Compound 62, 3-((3-(4-(2-((2-(bis(2-hydroxyethyl)amino)ethyl)sulfonyl)phenoxy)-3-(trifluoromethyl)phenyl)-1,2,4-oxadiazol-5-yl)methyl)-5,5-dimethyl-1-(2-morpholinoethyl)imidazolidine-2,4-dione], the Emax runs as follows: under setting [1], 154%; under setting [3], 148%. Further, the EC50 under setting [2] was 9.7 nM.

Turning to `CC(C)CS(=O)(=O)c1ccccc1Oc1ccc(-c2noc(CN3C(=O)N(CCC4CCOCC4)C(C)(C)C3=O)n2)cc1C(F)(F)F` [Compound 4, 3-((3-(4-(2-(isobutylsulfonyl)phenoxy)-3-(trifluoromethyl)phenyl)-1,2,4-oxadiazol-5-yl)methyl)-5,5-dimethyl-1-(2-(tetrahydro-2H-pyran-4-yl)ethyl)imidazolidine-2,4-dione], the Emax reads like this: under setting [1], 152%; under setting [3], 146%. Besides, the 50% effective concentration (EC50) under setting [2] was no more than 4.6 nM.
